Measured values: the supplement of paper PMC4932681

Assays:
T-47D Tam1 [1] = assay: relative IC50 (midpoint of fitted logistic curve, plateau may be below 50% inhibition; CellTiter-Glo viability); higher = less potent; settings: 4-OH-tamoxifen in medium 1 µM; 72 h
In short: (§1)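 CellTiter-Glo viability was the readout, taken on a PHERAstar and normalised to vehicle-only and positive controls. It was measured after breast cancer cell lines and their resistant derivatives spent 72 h at 37 °C in 384-well plates containing library drugs at five concentrations spanning a 10 000-fold range, with 1 μM of the selecting drug in the medium of resistant lines. From logistic dose–response fits in the Breeze pipeline came drug sensitivity score, relative IC50 (curve midpoint) and top-dose inhibition.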

ZR-75-1 Tam2 [2] = assay: as above; settings: 4-OH-tamoxifen in medium 1 µM; 72 h
In short: as §1

ZR-75-1 [3] = assay: as above; settings: 72 h
In short: as §1

MCF-7 Tam1 [4] = assay: as above; settings: 4-OH-tamoxifen in medium 1 µM; 72 h
In short: as §1

BT-474 Tam1 [5] = assay: as above; settings: 4-OH-tamoxifen in medium 1 µM; 72 h
In short: as §1

T-47D [6] = assay: as above; settings: 72 h
In short: as §1

MCF-7 [7] = assay: as above; settings: 72 h
In short: as §1

ZR-75-1 Tam1 [8] = assay: as above; settings: 4-OH-tamoxifen in medium 1 µM; 72 h
In short: as §1

T-47D Tam2 [9] = assay: as above; settings: 4-OH-tamoxifen in medium 1 µM; 72 h
In short: as §1

BT-474 [10] = assay: as above; settings: 72 h
In short: as §1

BT-474 Tam2 [11] = assay: as above; settings: 4-OH-tamoxifen in medium 1 µM; 72 h
In short: as §1

T-47D Tam1 [12] = assay: drug sensitivity score (DSS) (DSS (dimensionless)); higher = more sensitive; extreme values may be limits of the assay; settings: 4-OH-tamoxifen in medium 1 µM; 72 h
In short: as §1

ZR-75-1 Tam2 [13] = assay: as above; settings: 4-OH-tamoxifen in medium 1 µM; 72 h
In short: as §1

ZR-75-1 [14] = assay: as above; settings: 72 h
In short: as §1

MCF-7 Tam1 [15] = assay: as above; settings: 4-OH-tamoxifen in medium 1 µM; 72 h
In short: as §1

BT-474 Tam1 [16] = assay: as above; settings: 4-OH-tamoxifen in medium 1 µM; 72 h
In short: as §1

T-47D [17] = assay: as above; settings: 72 h
In short: as §1

MCF-7 [18] = assay: as above; settings: 72 h
In short: as §1

ZR-75-1 Tam1 [19] = assay: as above; settings: 4-OH-tamoxifen in medium 1 µM; 72 h
In short: as §1

T-47D Tam2 [20] = assay: as above; settings: 4-OH-tamoxifen in medium 1 µM; 72 h
In short: as §1

BT-474 [21] = assay: as above; settings: 72 h
In short: as §1

BT-474 Tam2 [22] = assay: as above; settings: 4-OH-tamoxifen in medium 1 µM; 72 h
In short: as §1

SMILES	relative IC50 (T-47D Tam1 [1]) [nM]	relative IC50 (MCF-7 Tam1 [4]) [nM]	relative IC50 (BT-474 Tam1 [5]) [nM]	relative IC50 (T-47D [6]; 4-OH-tamoxifen in medium 0 µM) [nM]	relative IC50 (T-47D [6]; 4-OH-tamoxifen in medium 1 µM) [nM]	relative IC50 (MCF-7 [7]; 4-OH-tamoxifen in medium 0 µM) [nM]	relative IC50 (MCF-7 [7]; 4-OH-tamoxifen in medium 1 µM) [nM]	relative IC50 (T-47D Tam2 [9]) [nM]	relative IC50 (BT-474 [10]; 4-OH-tamoxifen in medium 0 µM) [nM]	relative IC50 (BT-474 [10]; 4-OH-tamoxifen in medium 1 µM) [nM]	relative IC50 (BT-474 Tam2 [11]) [nM]	relative IC50 (ZR-75-1 Tam2 [2]) [nM]	relative IC50 (ZR-75-1 [3]; 4-OH-tamoxifen in medium 0 µM) [nM]	relative IC50 (ZR-75-1 [3]; 4-OH-tamoxifen in medium 1 µM) [nM]	relative IC50 (ZR-75-1 Tam1 [8]) [nM]	drug sensitivity score (T-47D Tam1 [12])	drug sensitivity score (ZR-75-1 Tam2 [13])	drug sensitivity score (ZR-75-1 [14]; 4-OH-tamoxifen in medium 0 µM)	drug sensitivity score (ZR-75-1 [14]; 4-OH-tamoxifen in medium 1 µM)	drug sensitivity score (MCF-7 Tam1 [15])	drug sensitivity score (BT-474 Tam1 [16])	drug sensitivity score (T-47D [17]; 4-OH-tamoxifen in medium 0 µM)	drug sensitivity score (T-47D [17]; 4-OH-tamoxifen in medium 1 µM)	drug sensitivity score (MCF-7 [18]; 4-OH-tamoxifen in medium 0 µM)	drug sensitivity score (MCF-7 [18]; 4-OH-tamoxifen in medium 1 µM)	drug sensitivity score (ZR-75-1 Tam1 [19])	drug sensitivity score (T-47D Tam2 [20])	drug sensitivity score (BT-474 [21]; 4-OH-tamoxifen in medium 0 µM)	drug sensitivity score (BT-474 [21]; 4-OH-tamoxifen in medium 1 µM)	drug sensitivity score (BT-474 Tam2 [22])
Cc1c2oc3c(C)ccc(C(=O)N[C@@H]4C(=O)N[C@H](C(C)C)C(=O)N5CCC[C@H]5C(=O)N(C)CC(=O)N(C)[C@@H](C(C)C)C(=O)O[C@@H]4C)c3nc-2c(C(=O)N[C@@H]2C(=O)N[C@H](C(C)C)C(=O)N3CCC[C@H]3C(=O)N(C)CC(=O)N(C)[C@@H](C(C)C)C(=O)O[C@@H]2C)c(N)c1=O [Dactinomycin]	8.17	24.1	18.9	7.79	8.51	11.4	13.5	8.76	22.7	27.5	35.2	8.33	4.5	9.03	9.56	18.2	23.2	20.5	17.4	16.1	20.1	16.8	12	20.2	20	19.8	16	11.2	17.9	16.1
C[C@]12CC[C@H](O)CC1=CC[C@@H]1[C@@H]2CC[C@]2(C)C(c3cccnc3)=CC[C@@H]12 [Abiraterone (CB-7598)]	> 5000	> 5000	> 5000	> 5000	> 5000	> 5000	> 5000	> 5000	> 5000	> 5000	> 5000	> 5000	> 5000	> 5000	> 5000	0	0	0	0	0	0	0	0	0	0	0	0	0	0	0
CO[C@H]1/C=C\C=C(/C)C(=O)NC2=CC(=O)C(NCCN(C)C)=C(C[C@@H](C)C[C@H](OC)[C@H](O)[C@@H](C)/C=C(\C)[C@@H]1OC(N)=O)C2=O [Alvespimycin (17-DMAG)]	424	48	15.3	259	142	22.5	30	196	13.1	8.88	14.6	71	85.8	75.2	95	1.14	5.93	3.36	6.21	4.36	16.9	3.17	3.41	12.6	8.71	3.49	3.87	12.2	19.4	17.6
CO[C@H](C(=O)[C@@H](O)[C@@H](C)O)[C@@H]1Cc2cc3cc(O[C@H]4C[C@@H](O[C@@H]5C[C@@H](O)[C@H](O)[C@@H](C)O5)[C@H](O)[C@@H](C)O4)c(C)c(O)c3c(O)c2C(=O)[C@H]1O[C@H]1C[C@@H](O[C@@H]2C[C@@H](O)[C@@H](O[C@@H]3C[C@](C)(O)[C@H](O)[C@@H](C)O3)[C@@H](C)O2)[C@H](O)[C@@H](C)O1 [Plicamycin  (Mithramycin A)]	36.3	318	632	84.6	110	401	150	57	357	542	495	64.5	45.3	66.5	58.6	22	23.6	21.5	19	14.1	13.7	18.4	13.2	14.9	20.1	22.1	17.4	11.9	14.3	14.9

Second part, led by results:

relative IC50 (T-47D Tam1 [1]) [nM]	relative IC50 (MCF-7 Tam1 [4]) [nM]	relative IC50 (BT-474 Tam1 [5]) [nM]	relative IC50 (T-47D [6]; 4-OH-tamoxifen in medium 0 µM) [nM]	relative IC50 (T-47D [6]; 4-OH-tamoxifen in medium 1 µM) [nM]	relative IC50 (MCF-7 [7]; 4-OH-tamoxifen in medium 0 µM) [nM]	relative IC50 (MCF-7 [7]; 4-OH-tamoxifen in medium 1 µM) [nM]	relative IC50 (T-47D Tam2 [9]) [nM]	relative IC50 (BT-474 [10]; 4-OH-tamoxifen in medium 0 µM) [nM]	relative IC50 (BT-474 [10]; 4-OH-tamoxifen in medium 1 µM) [nM]	relative IC50 (BT-474 Tam2 [11]) [nM]	SMILES	relative IC50 (ZR-75-1 Tam2 [2]) [nM]	relative IC50 (ZR-75-1 [3]; 4-OH-tamoxifen in medium 0 µM) [nM]	relative IC50 (ZR-75-1 [3]; 4-OH-tamoxifen in medium 1 µM) [nM]	relative IC50 (ZR-75-1 Tam1 [8]) [nM]	drug sensitivity score (T-47D Tam1 [12])	drug sensitivity score (ZR-75-1 Tam2 [13])	drug sensitivity score (ZR-75-1 [14]; 4-OH-tamoxifen in medium 0 µM)	drug sensitivity score (ZR-75-1 [14]; 4-OH-tamoxifen in medium 1 µM)	drug sensitivity score (MCF-7 Tam1 [15])	drug sensitivity score (BT-474 Tam1 [16])	drug sensitivity score (T-47D [17]; 4-OH-tamoxifen in medium 0 µM)	drug sensitivity score (T-47D [17]; 4-OH-tamoxifen in medium 1 µM)	drug sensitivity score (MCF-7 [18]; 4-OH-tamoxifen in medium 0 µM)	drug sensitivity score (MCF-7 [18]; 4-OH-tamoxifen in medium 1 µM)	drug sensitivity score (ZR-75-1 Tam1 [19])	drug sensitivity score (T-47D Tam2 [20])	drug sensitivity score (BT-474 [21]; 4-OH-tamoxifen in medium 0 µM)	drug sensitivity score (BT-474 [21]; 4-OH-tamoxifen in medium 1 µM)	drug sensitivity score (BT-474 Tam2 [22])
656	3520	680	1190	803	1720	1540	1180	1190	137	1130	C#Cc1cccc(Nc2ncnc3cc(OC)c(OCCCCCCC(=O)NO)cc23)c1 [CUDC-101]	1740	1600	1920	1150	11.7	4.71	3.69	4.14	2.26	12.6	10.3	12.3	7.91	8.89	4.08	8.37	9.66	21.9	10.2
134	713	203	246	543	1420	1160	131	333	697	338	COc1cccc2cc(-c3nc([C@H]4CC[C@H](C(=O)O)CC4)n4ncnc(N)c34)[nH]c12 [OSI-027]	198	263	132	219	15.8	12.5	11	11	2.71	7.62	11.9	5.99	4.23	4.31	9.81	8.2	5.02	6.48	5.03
